Assay results taken from PubChem BioAssay AID2060908 (Molecular Pharmacology Branch, DTP, NCI, 2025).

Tested on: 186277-243-T-J2-PDC complex spheroids, viability
Experiment: Anticancer human tumor 186277-243-T-J2-PDC patient-derived colon adenocarcinoma cell line growth inhibition [RAS]
Conditions: for IC50: curve of first compound; for viability, T/C: stronger effect = lower value
Outline: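 Tumour cells grown as complex spheroids with HUVEC endothelial cells and mesenchymal stem cells, treated with RAS pathway inhibitor combinations. Each agent spans half-log steps from near clinical Cmax, or 10 microM where Cmax is unknown.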
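Note: spheroids exposed to compounds for 7 days before viability read.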

C=CC(=O)Nc1cc(Nc2nccc(-c3cn(C)c4ccccc34)n2)c(OC)cc1N(C)CCN(C)C + CCn1c(-c2cccnc2C(C)OC)c2c3cc(ccc31)N1CCOC(CC(NC(=O)C(C(C)C)N(C)C(=O)C3(F)CCN(C(=O)C#CC(C)(C)N(C)C)CC3)C(=O)N3CCCC(N3)C(=O)OCC(C)(C)C2)C1
IC50 (second compound 0.000949 µM): > 1 µM
IC50 (second compound 0.003 µM): > 1 µM
IC50 (second compound 0.00949 µM): > 1 µM
IC50 (second compound 0.03 µM): > 1 µM
IC50 (second compound 0.0949 µM): > 1 µM
IC50 (second compound 0.3 µM): > 1 µM
viability, T/C (second compound 0.000949 µM, first compound 0.00316 µM): 94.2%
viability, T/C (second compound 0.000949 µM, first compound 0.01 µM): 86.9%
viability, T/C (second compound 0.000949 µM, first compound 0.0316 µM): 90.4%
viability, T/C (second compound 0.000949 µM, first compound 0.1 µM): 83.8%
viability, T/C (second compound 0.000949 µM, first compound 0.316 µM): 103%
viability, T/C (second compound 0.000949 µM, first compound 1 µM): 95.7%
viability, T/C (second compound 0.003 µM, first compound 0.00316 µM): 101%
viability, T/C (second compound 0.003 µM, first compound 0.01 µM): 107%
viability, T/C (second compound 0.003 µM, first compound 0.0316 µM): 107%
viability, T/C (second compound 0.003 µM, first compound 0.1 µM): 109%
viability, T/C (second compound 0.003 µM, first compound 0.316 µM): 110%
viability, T/C (second compound 0.003 µM, first compound 1 µM): 91.6%
viability, T/C (second compound 0.00949 µM, first compound 0.00316 µM): 116%
viability, T/C (second compound 0.00949 µM, first compound 0.01 µM): 107%
viability, T/C (second compound 0.00949 µM, first compound 0.0316 µM): 111%
viability, T/C (second compound 0.00949 µM, first compound 0.1 µM): 104%
viability, T/C (second compound 0.00949 µM, first compound 0.316 µM): 121%
viability, T/C (second compound 0.00949 µM, first compound 1 µM): 81%
viability, T/C (second compound 0.03 µM, first compound 0.00316 µM): 96.9%
viability, T/C (second compound 0.03 µM, first compound 0.01 µM): 97.4%
viability, T/C (second compound 0.03 µM, first compound 0.0316 µM): 106%
viability, T/C (second compound 0.03 µM, first compound 0.1 µM): 91.8%
viability, T/C (second compound 0.03 µM, first compound 0.316 µM): 101%
viability, T/C (second compound 0.03 µM, first compound 1 µM): 82.2%
viability, T/C (second compound 0.0949 µM, first compound 0.00316 µM): 109%
viability, T/C (second compound 0.0949 µM, first compound 0.01 µM): 123%
viability, T/C (second compound 0.0949 µM, first compound 0.0316 µM): 119%
viability, T/C (second compound 0.0949 µM, first compound 0.1 µM): 123%
viability, T/C (second compound 0.0949 µM, first compound 0.316 µM): 106%
viability, T/C (second compound 0.0949 µM, first compound 1 µM): 78.3%
viability, T/C (second compound 0.3 µM, first compound 0.00316 µM): 105%
viability, T/C (second compound 0.3 µM, first compound 0.01 µM): 105%
viability, T/C (second compound 0.3 µM, first compound 0.0316 µM): 109%
viability, T/C (second compound 0.3 µM, first compound 0.1 µM): 103%
viability, T/C (second compound 0.3 µM, first compound 0.316 µM): 82.8%
viability, T/C (second compound 0.3 µM, first compound 1 µM): 73.1%
